Test results reported in patent US20060276464A1, “Diarylsulfone sulfonamides and use thereof” (Wyeth, priority 2005, published 2006).
Where two headings read alike, the source gives them in different places.

Molecular target: T1, SFRP-1 (Homo sapiens, UniProt Q8N474)
T1 sequence (Q8N474 32-314): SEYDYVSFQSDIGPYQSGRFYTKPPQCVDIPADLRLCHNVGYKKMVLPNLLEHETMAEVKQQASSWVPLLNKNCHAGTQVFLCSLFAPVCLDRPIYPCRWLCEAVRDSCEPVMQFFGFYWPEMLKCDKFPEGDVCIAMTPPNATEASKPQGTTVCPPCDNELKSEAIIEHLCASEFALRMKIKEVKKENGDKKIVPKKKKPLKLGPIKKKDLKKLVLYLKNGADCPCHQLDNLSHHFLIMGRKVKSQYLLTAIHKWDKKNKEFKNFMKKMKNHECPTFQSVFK
Test: Cell-based assay for in vitro measurement of SFRP-1/SARP2 antagonist activity (U2OS cells co-transfected with 16x TCF-tk-Luciferase reporter, Wnt and hSFRP-1);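 further: U2OS cells co-transfected with a TCF-tk luciferase reporter, a Wnt vector, hSFRP-1 or empty vector and CMV-βgal, luciferase luminescence read in cell lysates alongside βgal activity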
Conditions: for fold induction at 15 µM: U2OS

[1] = read-out: Fold Induction with SFRP-1, Conc 15 μM, with SFRP-1, fold induction over SFRP-1 control, single dose
[2] = read-out: Fold Induction without SFRP-1, Conc 15 μM, without SFRP-1, single dose
[3] = Conc 15 μM, with SFRP-1, fold induction over SFRP-1 control, single dose
[4] = Conc 15 μM, without SFRP-1, single dose

Row | fold induction at 15 µM [1] | fold induction at 15 µM [2] | Compound | also measured
1 | 2.2 | 0.9 | Cc1ccc(S(=O)(=O)c2ccc(NCCCOC(C)C)cc2)cc1S(=O)(=O)NCCCn1ccnc1 [Example 367, N-[3-(1H-imidazol-1-yl)propyl]-5-({4-[(3-isopropoxypropyl)amino]phenyl}sulfonyl)-2-methylbenzenesulfonamide] | 
2 | 1.9 | 0.7 | Cc1ccc(S(=O)(=O)c2ccc(N[C@@H]3C[C@H]4CC[C@@H]3C4)cc2)cc1S(=O)(=O)NCCCn1ccnc1 [Example 369, 5-({4-[(1R,2R,4S)-bicyclo[2.2.1]hept-2-ylamino]phenyl}sulfonyl)-N-[3-(1H-imidazol-1-yl)propyl]-2-methylbenzenesulfonamide] | 
3 | 1.5 | 0.9 | Cc1ccc(S(=O)(=O)c2ccc(NCc3ccc(C(F)(F)F)cc3)cc2)cc1S(=O)(=O)NCCCn1ccnc1 [Example 374, N-[3-(1H-imidazol-1-yl)propyl]-2-methyl-5-[(4-{[4-(trifluoromethyl)benzyl]amino}phenyl)sulfonyl]benzenesulfonamide] | 
4 | 1.9 | 0.9 | Cc1ccc(S(=O)(=O)c2ccc(Br)cc2)cc1S(=O)(=O)NC1CCOCC1 [Example 375, 5-[(4-bromophenyl)sulfonyl]-2-methyl-N-(tetrahydro-2H-pyran-4-yl)benzenesulfonamide] | 
5 | 1.5 | 1.1 | Cc1ccc(S(=O)(=O)c2ccc(C#N)cc2)cc1S(=O)(=O)NC1CCOCC1 [Example 376, 5-[(4-cyanophenyl)sulfonyl]-2-methyl-N-(tetrahydro-2H-pyran-4-yl)benzenesulfonamide] | 
6 | 1.9 | 1.1 | Cc1ccc(S(=O)(=O)c2ccccc2Cl)cc1S(=O)(=O)NCCCn1ccnc1 [Example 377, 5-[(2-chlorophenyl)sulfonyl]-N-[3-(1H-imidazol-1-yl)propyl]-2-methylbenzenesulfonamide] | 
7 | 1.7 | 1.1 | Cc1ccc(S(=O)(=O)c2ccccn2)cc1S(=O)(=O)NCCCn1ccnc1 [Example 378, N-[3-(1H-imidazol-1-yl)propyl]-2-methyl-5-(pyridin-2-ylsulfonyl)benzenesulfonamide] | 
8 | 1.8 | 0.9 | Cc1ccc(S(=O)(=O)c2ccc(Cl)cc2Cl)cc1S(=O)(=O)NCCCn1ccnc1 [Example 379, 5-[(2,4-dichlorophenyl)sulfonyl]-N-[3-(1H-imidazol-1-yl)propyl]-2-methylbenzenesulfonamide] | 
9 | 0.5 | 0.6 | CC(=O)c1ccc(S(=O)(=O)c2ccc(C)c(S(=O)(=O)NC3CCOCC3)c2)cc1 [Example 380, 5-[(4-acetylphenyl)sulfonyl]-2-methyl-N-(tetrahydro-2H-pyran-4-yl)benzenesulfonamide] | 
10 | 2.4 | 0.9 | Cc1ccc(S(=O)(=O)c2ccccc2)cc1S(=O)(=O)NCC1CCOCC1 [Example 382, 2-methyl-5-(phenylsulfonyl)-N-(tetrahydro-2H-pyran-4-ylmethyl)benzenesulfonamide] | 
11 | 2.1 | 0.9 | Cc1ccc(S(=O)(=O)c2ccc(F)cc2)cc1S(=O)(=O)NCC1CCOCC1 [Example 383, 5-[(4-fluorophenyl)sulfonyl]-2-methyl-N-(tetrahydro-2H-pyran-4-ylmethyl)benzenesulfonamide] | 
12 | 2.6 | 0.8 | CCc1ccc(S(=O)(=O)c2ccc(F)cc2)cc1S(=O)(=O)NCC1CCOCC1 [Example 384, 2-ethyl-5-[(4-fluorophenyl)sulfonyl]-N-(tetrahydro-2H-pyran-4-ylmethyl)benzenesulfonamide] | 
13 | 2.7 | 1 | Cc1cc(C)c(S(=O)(=O)c2ccccc2)cc1S(=O)(=O)NCC1CCOCC1 [Example 385, 2,4-dimethyl-5-(phenylsulfonyl)-N-(tetrahydro-2H-pyran-4-ylmethyl)benzenesulfonamide] | 
14 | 1.8 | 1 | Cc1ccc(S(=O)(=O)c2ccccc2)cc1S(=O)(=O)NCC(O)c1ccccc1 (centres unmarked) [Example 386, N-(2-hydroxy-2-phenylethyl)-2-methyl-5-(phenylsulfonyl)benzenesulfonamide] | 
15 | 1.7 | 1.4 | Cc1ccc(S(=O)(=O)c2ccc(F)cc2)cc1S(=O)(=O)NCC(O)c1ccccc1 (centres unmarked) [Example 387, 5-[(4-fluorophenyl)sulfonyl]-N-(2-hydroxy-2-phenylethyl)-2-methylbenzenesulfonamide] | 
16 | 2.2 | 1.1 | CCc1ccc(S(=O)(=O)c2ccc(F)cc2)cc1S(=O)(=O)NCC(O)c1ccccc1 (centres unmarked) [Example 388, 2-ethyl-5-[(4-fluorophenyl)sulfonyl]-N-(2-hydroxy-2-phenylethyl)benzenesulfonamide] | 
17 | 1.5 | 1.1 | Cc1cc(C)c(S(=O)(=O)c2ccccc2)cc1S(=O)(=O)NCC(O)c1ccccc1 (centres unmarked) [Example 389, N-(2-hydroxy-2-phenylethyl)-2,4-dimethyl-5-(phenylsulfonyl)benzenesulfonamide] | 
18 |  |  | Cc1ccc(S(=O)(=O)c2ccccc2)cc1S(=O)(=O)NC(C)C(O)c1ccccc1 (stereo not drawn) [Example 390, trans-N-(2-hydroxy-1-methyl-2-phenylethyl)-2-methyl-5-(phenylsulfonyl)benzenesulfonamide] | Fold Induction with SFRP-1 [3]: 2.2 fold; Fold Induction without SFRP-1 [4]: 1.1 fold
19 |  |  | Cc1ccc(S(=O)(=O)c2ccc(F)cc2)cc1S(=O)(=O)NC(C)C(O)c1ccccc1 (stereo not drawn) [Example 391, 5-[(4-fluorophenyl)sulfonyl]-N-[trans-2-hydroxy-1-methyl-2-phenylethyl]-2-methylbenzenesulfonamide] | Fold Induction with SFRP-1 [3]: 1.8 fold; Fold Induction without SFRP-1 [4]: 1.1 fold
20 |  |  | Cc1cc(C)c(S(=O)(=O)c2ccccc2)cc1S(=O)(=O)NC(C)C(O)c1ccccc1 (stereo not drawn) [Example 393, N-[(trans)-2-hydroxy-1-methyl-2-phenylethyl]-2,4-dimethyl-5-(phenylsulfonyl)benzenesulfonamide] | Fold Induction with SFRP-1 (Conc 7.5 μM, with SFRP-1, fold induction over SFRP-1 control, single dose): 1.2 fold; Fold Induction without SFRP-1 (Conc 7.5 μM, without SFRP-1, single dose): 1 fold
21 | 1.5 | 1 | CCCNS(=O)(=O)c1cc(S(=O)(=O)c2ccccc2)ccc1C [Example 394, 2-methyl-5-(phenylsulfonyl)-N-propylbenzenesulfonamide] | 
22 | 1.2 | 1 | Cc1ccc(S(=O)(=O)c2ccccc2)cc1S(=O)(=O)NC(C)(C)C [Example 395, N-(tert-butyl)-2-methyl-5-(phenylsulfonyl)benzenesulfonamide] | 
23 | 1.4 | 1 | Cc1ccc(S(=O)(=O)c2ccccc2)cc1S(=O)(=O)NCC(C)(C)C [Example 396, N-(2,2-dimethylpropyl)-2-methyl-5-(phenylsulfonyl)benzenesulfonamide] | 
24 | 1.2 | 1.1 | CCC(CC)NS(=O)(=O)c1cc(S(=O)(=O)c2ccccc2)ccc1C [Example 397, N-(1-ethylpropyl)-2-methyl-5-(phenylsulfonyl)benzenesulfonamide] | 
25 | 1.8 | 1.2 | Cc1ccc(S(=O)(=O)c2ccccc2)cc1S(=O)(=O)NC1CCCCC1 [Example 400, N-cyclohexyl-2-methyl-5-(phenylsulfonyl)benzenesulfonamide] | 
